Among the data in ChEMBL document CHEMBL1151281, “Botcinins A, B, C, and D, metabolites produced by Botrytis cinerea, and their antifungal activity against Magnaporthe grisea, a pathogen of rice blast disease” (2005) are MIC and Activity values, retold here.

Values after ≈ are worked out from the molar mass of the structure shown. Active and inactive are the calls of the source.

Test [1] has as its system Pyricularia grisea. The experiment in a line: Antifungal activity against Magnaporthe grisea IFO 30733 after 3 days. It counts as functional. As to conditions: IFO 30733, 72 h.
Test [2] has as its system Pyricularia grisea. The experiment in a line: Antifungal activity against Magnaporthe grisea IFO 30733 at 800 uM after 3 days. The test is classed as functional, organism-based.

The molecule `CCCC[C@H](O)CCC(=O)O[C@@H]1[C@@H](C)[C@@H]2OC(=O)[C@H](C)[C@H](OC(C)=O)[C@@]2(C)O[C@H]1C` returned an MIC against Pyricularia grisea [1] of 100 µM (≈ 42.9 µg/mL).
Regarding `CC(=O)O[C@H]1[C@@H](C)C(=O)O[C@H]2[C@H](C)[C@@H](O)[C@H](C)O[C@@]21C`, the outcome in the test on Pyricularia grisea [2] was inactive.
`CCCC[C@H](O)/C=C/C(=O)O[C@@H]1[C@@H](C)[C@@H]2OC(=O)[C@H](C)[C@H](OC(C)=O)[C@@]2(C)O[C@H]1C` [BOTCININ A] showed an MIC in the test on Pyricularia grisea [1] of 100 µM (≈ 42.7 µg/mL).
`CCCCCC[C@H](O)/C=C/C(=O)O[C@@H]1[C@@H](C)[C@@H]2OC(=O)[C@H](C)[C@H](OC(C)=O)[C@@]2(C)O[C@H]1C` [BOTCININ B]: the MIC against Pyricularia grisea [1] came to 12.5 µM (≈ 5.68 µg/mL).
`CCCCCC[C@H](O)/C=C/C(=O)O[C@@H]1[C@@H](C)[C@@H]2OC(=O)[C@@H](C)[C@H](OC(C)=O)[C@@]2(C)O[C@H]1C` [BOTCININ C] yielded a minimal inhibitory concentration (MIC) in the test with Pyricularia grisea [1] of 100 µM (≈ 45.5 µg/mL).
Same read-out and setting: the figure for `CCCC[C@H](O)/C=C/C(=O)O[C@@H]1[C@@H](C)[C@@H]2OC(=O)C(C)=C[C@@]2(C)O[C@H]1C` [BOTCININ D] is 12.5 µM (≈ 4.58 µg/mL).

For orientation: MIC means the smallest concentration in the dilution series that meets the test's criterion for growth inhibition. Low readings indicate inhibition by little substance, high ones a need for much substance.
